Read-outs that look alike come from different tables or passages of the source.
Key:
[1] = male, Sprague Dawley, rat, in vivo
Procedure: Certain drug coated microarrays were tested in vivo in a preclinical model using Sprague Dawley rats. […] Male Sprague Dawley rats with jugular vein catheters were purchased from Charles River Laboratories. Once received, they were acclimated for at least 24 hours prior to dosing.
Typically, one hour prior to dosing microneedle arrays were removed from refrigeration (approximately 4° C.) and allowed to equilibrate to room temperature.
The standard procedure for skin preparation and microneedle array application is as follows.
One day prior to dosing, an area just above the hind legs on the dorsal surface of the rat was shaved using electric clippers. Nair® hair removal lotion (Church & Dwight Co.) was then applied to the area for 5 to 8 minutes to remove remaining fur stubble. The Nair® lotion was then thoroughly removed using a damp cloth. The next day a microneedle array was applied using a spring-loaded applicator. The microneedle array was left in contact with skin for five minutes, before being removed. During array application and contact time the rats were manually restrained.
Blood was collected at three time points from each animal out of a possible total of five time destinations (5 minutes, 15 minutes, 30 minutes, 45 minutes, 90 minutes) from each rat on a staggered schedule so that all time points would be represented with extra sampling at 15 minutes without overdrawing from any animal. Approximately 1 mL of blood was collected via the catheter from the jugular vein using a syringe and needle from rats for their first two blood draws. For the terminal blood collection, animals were euthanized via CO2 chamber and approximately 1 mL of blood was collected via cardiac puncture. The blood was immediately transferred to a serum separator tube that contained 25 μL of a 2.5 mg/ml aprotinin (Sigma) solution.
Blood was collected from each rat 5, 10, 15, 30 and 45 minutes post dose. Approximately 600 μL of blood was collected via the catheter from the jugular vein using a syringe and needle from rats for their first four blood draws. For the terminal blood collection, animals were euthanized via CO2 chamber and approximately 600 μL of blood was collected via cardiac puncture. The blood was immediately transferred to a serum separator tube that contained 12 μL of a 2.5 mg/ml aprotinin (Sigma) solution.
Blood was collected three or four times from each rat at the time points depicted in the tables below. Approximately 1 mL of blood was collected via the catheter from the jugular vein using a syringe and needle from rats for any non-terminal time points. For the terminal blood collection, animals were euthanized via CO2 chamber and approximately 1 mL of blood was collected via cardiac puncture. The blood was immediately transferred to a serum separator tube that contained 20 μL of a 2.5 mg/ml aprotinin (Sigma) solution.
Blood was collected from each rat 5, 15, 30, 45, 90 and 120 minutes post dose. Approximately 500 μL of blood was collected via the catheter from the jugular vein using a syringe and needle from rats for their first five blood draws. For the terminal blood collection, animals were euthanized via CO2 chamber and approximately 500 μL of blood was collected via cardiac puncture.

[2] = set-up: AUC5-90, Mean: unit not given beside the values; conditions: Sprague-Dawley, rat, in vivo, 13.6 ug

SMILES: CC[C@H](C)[C@H](NC(=O)[C@H](CO)NC(=O)[C@H](CCCCN)NC(=O)CNC(=O)[C@H](CCCCN)NC(=O)[C@H](CC(=O)O)NC(=O)[C@H](Cc1cnc[nH]1)NC(=O)[C@H](CC(C)C)NC(=O)[C@H](CC(C)C)NC(=O)[C@H](CCC(N)=O)NC(=O)[C@H](Cc1cnc[nH]1)NC(=O)[C@H](CCC(=O)O)NC(=O)[C@H](CO)NC(=O)[C@@H](NC(=O)[C@H](C)N)C(C)C)C(=O)N[C@@H](CCC(N)=O)C(=O)N[C@@H](CC(=O)O)C(=O)N[C@@H](CC(C)C)C(=O)N[C@@H](CCCNC(=N)N)C(=O)N[C@@H](CCCNC(=N)N)C(=O)N[C@@H](CCCNC(=N)N)C(=O)N[C@@H](CCC(=O)O)C(=O)N[C@@H](CC(C)C)C(=O)N[C@@H](CC(C)C)C(=O)N[C@@H](CCC(=O)O)C(=O)N[C@@H](CCCCN)C(=O)N[C@@H](CC(C)C)C(=O)N[C@@H](CC(C)C)C(=O)NC(C)(C)C(=O)N[C@@H](CCCCN)C(=O)N[C@@H](CC(C)C)C(=O)N[C@@H](Cc1cnc[nH]1)C(=O)N[C@H](C(=O)N[C@@H](C)C(N)=O)[C@@H](C)O [Peptide]
- AUC(0-t) ([1]; 20 ug/kg): 166 ng·min/mL
- Cmax ([1]; 20 ug/kg): 7.15 ng/mL
- Cmax (20 μg/kg Dose) ([1]; 20 ug/kg): 7.15 ng/mL
- T1/2 ([1]; 20 ug/kg): 14 min
- Tmax ([1]; 20 ug/kg): 15 min
- Concentrations of Peptide in Serum ([1]; 26.2 ug, 5 min): 45.29 ng/mL
- Concentrations of Peptide in Serum ([1]; 26.2 ug, 0.25 h): 59.72 ng/mL
- Concentrations of Peptide in Serum ([1]; 26.2 ug, 0.5 h): 20.15 ng/mL
- Concentrations of Peptide in Serum ([1]; 26.2 ug, 0.75 h): 11.63 ng/mL
- T1/2 ([1]; 27 ug): 26 min
- Tmax ([1]; 27 ug): 15 min
- Concentrations of Peptide in Serum ([1]; 27 ug, 5 min): 21.34 ng/mL
- Concentrations of Peptide in Serum ([1]; 27 ug, 0.25 h): 31.08 ng/mL
- Concentrations of Peptide in Serum ([1]; 27 ug, 0.5 h): 12.43 ng/mL
- Concentrations of Peptide in Serum ([1]; 27 ug, 0.75 h): 6.99 ng/mL
- Concentrations of Peptide in Serum ([1]; 32 ug, 5 min): 37.76 ng/mL
- Concentrations of Peptide in Serum ([1]; 32 ug, 10 min): 29.94 ng/mL
- Concentrations of Peptide in Serum ([1]; 32 ug, 0.25 h): 37.48 ng/mL
- Concentrations of Peptide in Serum ([1]; 32 ug, 0.5 h): 15.99 ng/mL
- Concentrations of Peptide in Serum ([1]; 32 ug, 0.75 h): 8.39 ng/mL
- AUC(0-t) ([1]; 141.9 ug): 5199 ng·min/mL
- Cmax ([1]; 141.9 ug): 153.74 ng/mL
- Tmax ([1]; 141.9 ug): 15 min
- % F ([1]; 386.5 ug): 24%
- AUC(0-t) ([1]; 386.5 ug): 6899 ng·min/mL
- Cmax ([1]; 386.5 ug): 179.02 ng/mL
- T1/2 ([1]; 386.5 ug): 16 min
- Tmax ([1]; 386.5 ug): 15 min
- AUC5-90, Mean [2]: 282
- Cmax, Mean [2]: 12.3 ng/mL
- Tmax, Mean [2]: 9 min
- Concentration in Serum at 5 min, Mean ([2]; 5 min): 11.8 ng/mL
- Concentration in Serum at 15 min, Mean ([2]; 0.25 h): 10.5 ng/mL
- Concentration in Serum at 30 min, Mean ([2]; 0.5 h): 7.1 ng/mL
